Measurements: US11717536B2, “Treatment for periodontitis” (THE UNIVERSITY OF MELBOURNE, priority 2017, dated 2023)
“Also recorded” adds a separate entry of the source. Marks after values point to notes of the source that are not given here.

Legend:
[1] = tested on: Leptotrichia wadei; experiment: Clinical trial: plaque microbial analysis, Leptotrichia wadei; assay type: in vivo; details: 18.8 mg CPP-ACP sugar-free gum, 20 min six times per day, 14 days, vs no gum chewing; supragingival plaque
Description: (§1) Following the completion of the examination and supragingival plaque collection, participants received a supragingival scaling, clean and prophylaxis of all their teeth. At the completion of the last examination for leg 3, each participant received a professional fluoride treatment.
(§2) Participants had all supragingival plaque collected from the buccal surfaces of their maxillary molars (teeth 17, 16, 26 & 27) with a sterile scaling instrument. The plaque samples from each tooth were placed in separate sterile tubes, to give four samples per participant.
(§3) Genomic DNA was extracted from the plaque using a combination of mechanical disruption of the cells via a Precellys homogeniser and the chemical extraction and purification of the genomic DNA via the PowerLyzer PowerSoil DNA Isolation Kit (MoBio). Quantitation of the extracted DNA was achieved using a Qubit dsDNA High Sensitivity Assay kit (ThermoFisher), before 5 ng DNA was used as template in a PCR reaction that amplified the V4 variable region of the 16S ribosomal RNA gene and individually barcoded the PCR product from each sample. The barcoded DNA was then sequenced using an Ion Torrent Personal Genome machine and Torrent Suite™ Software (ThermoFisher).
(§4) Analysis of the resulting sequence of the 16S ribosomal RNA gene enabled identification of the bacterial population present in each sample, down to the species level. […]

[2] = tested on: Leptothrichia shahii; experiment: Clinical trial: plaque microbial analysis, Leptothrichia shahii; assay type: in vivo; details: 18.8 mg CPP-ACP sugar-free gum, 20 min six times per day, 14 days, vs no gum chewing; supragingival plaque
Description: as §1, §2, §3, §4

[3] = tested on: gingivitis; experiment: Clinical trial: gingivitis by Modified Gingival Index; assay type: in vivo, human; details: CPP-ACP gum (18.8 and 56.4 mg), 14 days, vs no gum chewing; FIG. 2
Protocol: Following the completion of the examination and supragingival plaque collection, participants received a supragingival scaling, clean and prophylaxis of all their teeth. At the completion of the last examination for leg 3, each participant received a professional fluoride treatment. Gingivitis was measured using the Modified Gingival Index [Lobene et al 1986]. This index is a modification of the Loe and Silness Gingival Index and allows greater discrimination for mild and moderate gingivitis. In this study, gingival inflammation on a scale from 0 to 4 was scored for gingival tissues associated with four sites (buccal, lingual, mesial and distal) of all teeth.

[4] = tested on: Actinomyces naeslundii (NCTC 10301); experiment: Six species polymicrobial biofilm in constant-depth film fermenter, species composition: A. naeslundii; assay type: cell-based; details: 19 days; mean ± standard deviation; n = 5-21
Protocol: (§5) To model supragingival plaque six representative oral bacterial species, Streptococcus sanguinis (NCTC 7863), Streptococcus mutans Ingbritt, Actinomyces naeslundii (NCTC 10301), Veillonella parvula (ATCC 17745), Lactobacillus casei (NCDO 161) and Fusobacterium nucleatum (ATCC 10953) (Table 5) were cultured as a polymicrobial biofilm on a human enamel substratum in a constant-depth film fermenter (CDFF; Cardiff University, UK). The CDFF was housed in a 37° C. incubator under anaerobic conditions which were maintained by a constant flow of 5% CO2 in N2 at 1 L/h. The CDFF contained 15 removable polytetrafluoroethylene (PTFE) pans on a circular platform that was rotated at a constant speed of three rpm. The biofilms were grown on three enamel blocks (see below) in each PTFE pan using an artificial saliva medium (ASM, 2.5 g/L mucin type II (porcine, gastric, Sigma), 2.0 g/L bacteriological peptone (Oxoid), 2.0 g/L tryptone (Oxoid), 1.0 g/L yeast extract (Oxoid), 0.35 g/L NaCl, 0.2 g/L KCl, 0.2 mg/L vitamin K, 1 mg/L haemin and 0.1 g/L cysteine hydrochloride) at a constant flow rate of 30 mL/h. Prior to inoculation, the CDFF pan surfaces were conditioned for 24 h with ASM at a flow rate of 10 mL/h (McBain et al (2003) J Appl Microbiol. 94(4):655-66). In order to mimic in vivo bacterial growth conditions in the oral cavity with dietary sugar intake and to provide a high cariogenic challenge, a 1% (w/v) sucrose solution in ASM was pumped into the CDFF four times a day at four hourly intervals with a flow rate of 30 mL/h for 10 min.
(§6) Three treatments were applied to the polymicrobial biofilms: 290 ppm fluoride with 220 ppm fluoride as SnF2 and 70 ppm fluoride as NaF (referred to as SnF2), 2% CPP-ACP and 2% CPP-ACP-SnF2. […]
(§7) For each timepoint, DNA was extracted separately from 8-9 enamel blocks using PowerLyzer® PowerSoil® DNA Isolation Kits (MoBio Laboratories) following the manufacturers “Vacuum Protocol” with a Precellys® bead homogeniser (Bertin Technologies). Samples were quantified using a Qubit™ dsDNA HS assay kit (Life Technologies) before being stored at −80° C. […]

[5] = tested on: Lactobacillus casei (NCDO 161); experiment: Six species polymicrobial biofilm in constant-depth film fermenter, species composition: L. casei; assay type: cell-based
Protocol: as §5
Three treatments were applied to the polymicrobial biofilms: 290 ppm fluoride with 220 ppm fluoride as SnF2 and 70 ppm fluoride as NaF (referred to as SnF2), 2% CPP-ACP and 2% CPP-ACP-SnF2. These treatments were compared with the control in which the test solution was replaced with ASM. Each treatment was applied using two 10 min pulses of the test solution in ASM with a flow rate of 30 mL/h. The first pulse started 30 min prior to the first sucrose pulse of the morning and the second started 3 h 30 min after the final sucrose pulse of the day.
On day 6, 12 and 19 after inoculation four pans were removed aseptically from the CDFF and replaced with blank sterile pans. Enamel blocks from the pans were removed for bacterial enumeration and transverse microradiography.
Planktonic and loosely attached bacterial cells were firstly removed from the enamel blocks by light washing with 100 μL ASM. […]
as §7

[6] = tested on: Streptococcus mutans Ingbritt; experiment: Six species polymicrobial biofilm in constant-depth film fermenter, species composition: S. mutans; assay type: cell-based
Protocol: as §5, §6, §7

[7] = 19 days, mean ± standard deviation, n = 5-21

Question: For “Casein phosphopeptide-amorphous calcium phosphate [CPP-ACP]”, which “% decrease in relative abundance, Leptotrichia wadei” value [1] is on record?
Answer: 91% (p < 0.001)

Question: And the “% decrease in relative abundance, Leptothrichia shahii” value [2]?
Answer: 73% (p < 0.01)

Question: And the gingival index [3]?
Answer: significant CPP-ACP dose-related improvement

Question: And the “A. naeslundii as a percentage of total bacteria in the biofilm” value [4]?
Answer: 11.93 ± 2.34^b %

Question: What about the “L. casei as a percentage of total bacteria in the biofilm” value [5, 7] of the same substance?
Answer: 0.38 ± 0.23^ac %

Question: What about the “change in abundance of L. casei relative to the control (in words)” value ([5]; twice daily treatment, day 19) of the same substance?
Answer: dramatically decreased; also recorded: suppressed the emergence

Question: What about the “decrease in relative abundance of L. casei compared with the control” value ([5]; twice daily treatment, consistent) of the same substance?
Answer: > 95%

Question: And the “S. mutans as a percentage of total bacteria in the biofilm” value [6, 7]?
Answer: 58.70 ± 5.47^b %

Question: What about the “change in abundance of S. mutans relative to the control (in words)” value ([6]; twice daily treatment, day 19) of the same substance?
Answer: remained relatively constant
